In patent US9901573B2, “Compositions, methods, and kits for regulating energy metabolism” (NuSirt Sciences, Inc., priority 2012, dated 2018):
Marks after values point to notes of the source that are not given here.

Columns and labels:
Format in all cases: cell-based
[1] = tested on: C2C12 myotubes; test: Fatty acid oxidation (O2 consumption response to palmitate) in myotubes; details: FIG. 4/5, 24 hours, leucine, valine, isoleucine 0.5 mM, B6 100 nM as pyridoxal phosphate, vs control
Description: Cell Culture: C2C12 and 3T3-L1 preadipocytes (American Type Culture Collection) were plated at a density of 8000 cells/cm^2 (10 cm^2 dish) and grown in Dulbecco's modified eagle's medium (DMEM) containing 10% fetal bovine serum (FBS), and antibiotics (growth medium) at 37° C. in 5% CO2. Confluent 3T3-L1 preadipocytes were induced to differentiate with a standard differentiation medium consisting of DMEM medium supplemented with 10% FBS, 250 nM dexamethasone, 0.5 mM 3-Isobutyl-1-methylxanthine (IBMX) and 1% penicillin-streptomycin. Preadipocytes were maintained in this differentiation medium for 3 days and subsequently cultured in growth medium. Cultures were re-fed every 2-3 days to allow >90% cells to reach fully differentiation before conducting chemical treatment. For differentiation of C2C12 cells, cells were grown to 100% confluence, transferred to differentiation medium (DMEM with 2% horse serum and 1% penicillin-streptomycin), and fed with fresh differentiation medium every day until myotubes were fully formed (3 days). Fatty acid oxidation: Cellular oxygen consumption was measured using a Seahorse Bioscience XF24 analyzer (Seahorse Bioscience, Billerica, Mass.) in 24-well plates at 37° C., as described by Feige et al (1) with slight modifications. Cells were seeded at 40,000 cells per well, differentiated as described above, treated for 24 hours with the indicated treatments, washed twice with non-buffered carbonate-free pH 7.4 low glucose (2.5 mM) DMEM containing carnitine (0.5 mM), equilibrated with 550 μL of the same media in a non-CO2 incubator for 45 minutes, and then inserted into the instrument for 15 minutes of further equilibration, followed by O2 consumption measurement. Three successive baseline measurements at five-minute intervals were taken prior to injection of palmitate (200 μM final concentration). Four successive 5-minute measurements of O2 consumption were then conducted, followed by 10 minute re-equilibration and another 3-4 5-minute measurements. This measurement pattern was then repeated over a 4-6 hour period. Data for each sample were normalized to the pre-palmitate injection baseline for that sample and expressed as % change from that baseline. […] The area under of the curve of O2 consumption change from baseline for each sample was then calculated and used for subsequent analysis.

[2] = tested on: 3T3-L1 adipocytes; test: Intracellular Ca2+ by fura-2 imaging in adipocytes
Description: Cell culture: 3T3-L1 pre-adipocytes were incubated at a density of 8000 cells/cm^2 (10 cm^2 dish) and grown in the absence of insulin in Dulbecco's modified Eagle's medium (DMEM) containing 10% FBS and antibiotics (1% penicillin-streptomycin)(adipocyte medium) at 37° C. in 5% CO2 in air. Confluent pre-adipocytes were induced to differentiate with a standard differentiation medium consisting of DMEM-F10 (1:1, vol/vol) medium supplemented with 1% fetal bovine serum (FBS), 250 nM dexamethasone (DEXA), isobutylmethylxanthine (IBMX) (0.5 mM) and antibiotics. Pre-adipocytes were maintained in this differentiation medium for 3 days (unless specifically indicated) and subsequently cultured in adipocyte medium. Cultures were re-fed every 2-3 days to allow 90% cells to reach fully differentiation before treatment.
Intracellular Ca^2+ ([Ca^2+]i): [Ca^2+]i was measured using a fura-2 dual wavelength fluorescence imaging system. Adipocytes were plated and differentiated in 35 mm dishes with glass coverslips (P35G-0-14-C, MatTek Corporation). Prior to [Ca^2+]i measurement, cells were preincubated in serum-free medium overnight and rinsed with Hepes Balanced Salt Solution (HBSS) containing the following components (in mM): NaCl 138, CaCl2 1.8, MgSO4 0.8, NaH2PO4 0.9, NaHCO3 4, glucose 5, glutamine 6, Hepes 20, and bovine serum albumin 1%. Cells were loaded with fura-2 acetoxymethyl ester (AM) (10 μM) in the same buffer for 2 hr at 37° C. in a dark incubator with 5% CO2. To remove extracellular dye, cells were rinsed with HBSS 3 times and then postincubated at room temperature for an additional 1 hr for complete hydrolysis of cytoplasmic fura-2 AM. The dishes with dye-loaded cells were mounted on the stage of Nikon TMS-F fluorescence inverted microscope with a Cohu 4915 CCD camera. Fluorescent images were captured alternatively at excitation wavelength of […] with an emission wavelength of 520 nm. [Ca^2]i was calculated using a standard ratio equation. Each analysis evaluated responses of 8-10 representative whole cells. Images were analyzed with InCytIm2 version 4.62 imaging software (Intracellular Imaging, Cincinnati, Ohio). Images were calibrated using a fura-2 calcium imaging calibration kit (Molecular Probes, Eugene, Oreg.) to create a calibration curve in solution, and cellular calibration was accomplished using digitonin (25 μM) and pH 8.7 Tris-EGTA (100 mM) to measure maximal and minimal [Ca^2+]i levels.

[3] = tested on: C2C12 myotubes; test: Mitochondrial biogenesis (mitochondrial mass, NAO probe); details: FIG. 13
Description: Cell Culture: C2C12 and 3T3-L1 preadipocytes (American Type Culture Collection) were plated at a density of 8000 cells/cm^2 (10 cm^2 dish) and grown in Dulbecco's modified eagle's medium (DMEM) containing 10% fetal bovine serum (FBS), and antibiotics (growth medium) at 37° C. in 5% CO2. Confluent 3T3-L1 preadipocytes were induced to differentiate with a standard differentiation medium consisting of DMEM medium supplemented with 10% FBS, 250 nM dexamethasone, 0.5 mM 3-Isobutyl-1-methylxanthine (IBMX) and 1% penicillin-streptomycin. Preadipocytes were maintained in this differentiation medium for 3 days and subsequently cultured in growth medium. Cultures were re-fed every 2-3 days to allow >90% cells to reach fully differentiation before conducting chemical treatment. For differentiation of C2C12 cells, cells were grown to 100% confluence, transferred to differentiation medium (DMEM with 2% horse serum and 1% penicillin-streptomycin), and fed with fresh differentiation medium every day until myotubes were fully formed (3 days). Mitochondrial biogenesis: Mitochondrial biogenesis was assessed as change in mitochondrial mass, as previously described (2). The mitochondrial probe NAO (Invitrogen, Carlsbad, Calif.) was used to analyze mitochondrial mass by fluorescence (excitation 485 nm and emission 520 nm) and quantitative data was obtained with a fluorescence microplate reader (Synergy HT, BioTek Instruments, Winooski, Vt.). The intensity of fluorescence was expressed as arbitrary units per μg protein and normalized to control values within each assay.

## CC(C)C[C@H](N)C(=O)O [Leucine, leucine]
[1]
  increase in fatty acid oxidation: 73%
[2]; Leucine 0.25 mM
  Intracellular Ca2+: 75.2^b ± nM
[2]; Leucine 0.5 mM
  Intracellular Ca2+: 83.7^b ± nM
[3]
  increase in mitochondrial biogenesis (mitochondrial biomass): about 15%
